Assay results published in PMC5785958, “New role of phenothiazine derivatives as peripherally acting CB1 receptor antagonizing anti-obesity agents” (Scientific Reports, 2018).

What was measured:
[1] = PAMPA-BBB in vitro permeability assay; type: in vitro ADME, porcine; set-up: key to Prediction (penetration in CNS): CNS- indicates low passive CNS permeation; conditions: for Prediction (penetration in CNS): from PAMPA-BBB Pe, Pe less than 3.8 × 10^−6 cm s^−1 = low BBB permeation; for Papp at 120 min, 100 µg/ml: pig, PAMPA-BBB, porcine brain lipid, PBS/ethanol (70:30), 25 °C, mean ± SEM of three experiments, read-out: Pe
Experimental: As discussed above, BBB permeation of the available CB1 receptor antagonists limits their therapeutic utility. A successful CB1 receptor antagonist to be used as anti-obesity agent must be devoid of BBB permeability. […] In this study, the ability of the test compounds to cross the BBB was determined by the well established in vitro model PAMPA-BBB assay. This simple and rapid model has the advantage to predict passive BBB permeation with high accuracy[57],[58]. The in vitro permeability (Pe) of the test compounds through the lipid extract of porcine brain was determined in PBS/ethanol (70:30).
To assess the in vivo brain permeability potential of the test compounds, PAMPA assay for BBB was performed as reported by Di. et al.[57]. The donor microplate (polyvinylidene fluoride (PVDF) membrane, diameter 25 mm, pore size 0.45 µm Millipore) and the acceptor microplate were used for the experiment. The acceptor microplate was filled with 200 µl phosphate buffer saline (PBS) and ethanol in the ratio of 70:30 whereas the donor microplate filter surface was impregnated with porcine brain lipid (Avanti Polar Lipids) in dodecane (Sigma) (4 µl of 20 mg/ml). 200 µl of the test compound (100 µg/ml in PBS/ethanol) was added to the donor well. A sandwich was formed by placing the donor plate carefully on the acceptor plate, and the plates were kept undisturbed for 120 min at 25 °C. The donor plate was carefully detached after the incubation period and concentration of the test compound in the acceptor wells was determined using UV spectroscopy. Each sample was analyzed in four wells at five different wavelengths, and at least in three independent runs. Assay validation was performed by using nine commercial quality standard drugs of known BBB permeability[75] in which the reported permeability values of the standards were compared with their experimental permeability values, which gave a linear relationship, Pe(exp.) = 1.171Pe(bibl.) + 1.489 (R^2 = 0.983)[57],[58].

[2] = test system: Wistar rats; assay: Acute hypophagic response in 24 h food-deprived rats; type: in vivo, rat; conditions: for effect on food intake (in words): 2 h
Experimental: As a preliminary screening, the synthesized compounds were evaluated for acute hypophagia in rats and the results are summarized in Fig. 5. Twenty four hour food deprived Wistar rats were given weighed amounts of food pellets after administration of the test compounds. Quantum of food consumed by the control group of animals was considered as 100%.
Male Wistar rats weighing 200–250 g were used in the present study to assess the acute hypophagic response. Animals were housed individually in a plexi-glass cage in a temperature and humidity controlled room with a 12 h light/dark cycle. Standard chow pellets and water were made available ad libitum. Animals were handled daily for a week before performing the actual experiments. The animal study protocol was approved by the Institutional Animal Ethics Committee (IAEC) of Faculty of Pharmacy, The Maharaja Sayajirao University of Baroda (Approval no. MSU/IAEC/2014-15/1401). The experiments were conducted in accordance to the guidelines of CPCSEA (Committee for the Purpose of Control and Supervision of Experiments on Animals), Ministry of Environment & Forests, Govt. of India. We tried our best to reduce the number of animals and their suffering.
The acute effect of the synthesized test compounds on feeding behavior was assessed in 24 h food-deprived animals. Before performing the experiments, the bedding material was removed from the cage. The animals were deprived of feed for 24 h with free access to water. The fasted animals were administered with the test compounds (10 mg/kg, p.o.). After 30 min of administration, weighed amounts of food pellets were served to the animals. Amount of food pellets and food spillage remaining after 2 h were weighed to find out the amount of food consumed by the animals.

[3] = 24 h fasted male Wistar rats, 10 mg/kg p.o.
[4] = 24 h fasted male Wistar rats, 10 mg/kg p.o., food served after 30 min, intake over 2 h

Row | SMILES | Prediction (penetration in CNS) [1] | Papp at 120 min, 100 µg/ml [1] [×10⁻⁶ cm/s] | effect on food intake (in words) [2, 3] | food intake (control = 100%) [2, 4] | melting point [°C] | food intake (control = 100%) ([2]; 24 h fasted male Wistar rats, 10 mg/kg p.o., food served after 30 min, intake over 2 h, 10 mg/kg) | food intake (control = 100%) ([2]; po, 10 mg/kg) [%]
1 | Nn1c(SCC(=O)N2c3ccccc3Sc3ccc(C(F)(F)F)cc32)nnc1-c1ccncc1 [Compound 33, 2-(4-Amino-5-(4-pyridyl)-4H-1,2,4-triazol-3-ylthio)-1-(2-(trifluoromethyl)-10H-phenothiazin-10-yl)ethanone] | CNS- | 1.05 ± 0.22 | did not impact the food intake | 80–99% | 202 to 204 |  | 
2 | CCOC(=O)c1cnc(SCCCN2c3ccccc3Sc3ccc(Cl)cc32)nc1N [Compound 47, Ethyl 4-amino-2-(3-(2-chloro-10H-phenothiazin-10-yl)propylthio)pyrimidine-5-carboxylate] | CNS- | 3.28 ± 0.38 |  | 62–74% | 120 to 122 |  | 
3 | N#Cc1cnc(SCC(=O)N2c3ccccc3Sc3ccc(Cl)cc32)nc1N [Compound 22, 4-Amino-2-(2-(2-chloro-10H-phenothiazin-10-yl)-2-oxoethylthio)pyrimidine-5-carbonitrile] | CNS- | 2.28 ± 0.11 |  | 62–74% | 222 to 224 |  | 
4 | COc1ccc2c(c1)N(CCCSc1ncc(C#N)c(N)n1)c1ccccc1S2 [Compound 44, 4-Amino-2-(3-(2-methoxy-10H-phenothiazin-10-yl)propylthio)pyrimidine-5-carbonitrile] | CNS- | 3.58 ± 0.73 |  | 62–74% | 158 to 160 |  | 
5 | CCOC(=O)c1cnc(SCCCN2c3ccccc3Sc3ccc(C(F)(F)F)cc32)nc1N [Compound 46, Ethyl 4-amino-2-(3-(2-trifluoromethyl-10H-phenothiazin-10-yl)propylthio)pyrimidine-5-carboxylate] | CNS- | 2.84 ± 0.28 |  | 62–74% | 118 to 120 |  | 
6 | O=C(CSc1nnc(-c2ccncc2)o1)N1c2ccccc2Sc2ccccc21 [Compound 32, 1-(10H-Phenothiazin-10-yl)-2-(5-(4-pyridyl)-1,3,4-oxadiazol-2-ylthio)ethanone] | CNS- | 3.22 ± 0.63 | no effect on food intake | 80–99% | 212 to 214 |  | 
7 | CCOC(=O)c1cnc(SCCCN2c3ccccc3Sc3ccc(OC)cc32)nc1N [Compound 48, Ethyl 4-amino-2-(3-(2-methoxy-10H-phenothiazin-10-yl)propylthio)pyrimidine-5-carboxylate] |  |  |  |  | 106 to 108 |  | 
8 | CCOC(=O)c1cnc(SCC(=O)N2c3ccccc3Sc3ccccc32)nc1N [Compound 28, Ethyl 4-amino-2-(2-oxo-2-(10H-phenothiazin-10-yl)ethylthio)pyrimidine-5-carboxylate] |  |  |  |  | 202 to 204 |  | 
9 | COc1ccc2c(c1)N(C(=O)CSc1nnc(-c3ccncc3)n1N)c1ccccc1S2 [Compound 35, 2-(4-Amino-5-(4-pyridyl)-4H-1,2,4-triazol-3-ylthio)-1-(2-methoxy-10H-phenothiazin-10-yl)ethanone] |  |  |  |  | 188 to 190 |  | 
10 | COc1ccc2c(c1)N(C(=O)CSc1nnc(-c3ccncc3)o1)c1ccccc1S2 [Compound 31, 1-(2-Methoxy-10H-phenothiazin-10-yl)-2-(5-(4-pyridyl)-1,3,4-oxadiazol-2-ylthio)-ethanone] |  |  |  |  | 166 to 168 |  | 
11 | CCOC(=O)c1cnc(SCC(=O)N2c3ccccc3Sc3ccc(Cl)cc32)nc1N [Compound 26, Ethyl 4-amino-2-(2-(2-chloro-10H-phenothiazin-10-yl)-2-oxoethylthio)pyrimidine-5-carboxylate] | CNS- | 3.66 ± 0.67 |  | 62–74% | 156 to 158 |  | 
12 | Nn1c(SCC(=O)N2c3ccccc3Sc3ccccc32)nnc1-c1ccncc1 [Compound 36, 2-(4-Amino-5-(4-pyridyl)-4H-1,2,4-triazol-3-ylthio)-1-(10H-phenothiazin-10-yl)ethanone] |  |  |  |  | 232 to 234 |  | 
13 | N#Cc1cnc(SCCCN2c3ccccc3Sc3ccc(Cl)cc32)nc1N [Compound 43, 4-Amino-2-(3-(2-chloro-10H-phenothiazin-10-yl)propylthio)pyrimidine-5-carbonitrile] | CNS- | 3.47 ± 0.66 |  | 62–74% | 138 to 140 |  | 
14 | O=C(CSc1nnc(-c2ccncc2)o1)N1c2ccccc2Sc2ccc(Cl)cc21 [Compound 30, 1-(2-Chloro-10H-phenothiazin-10-yl)-2-(5-(4-pyridyl)-1,3,4-oxadiazol-2-ylthio)ethanone] |  |  |  |  | 194 to 196 |  | 
15 | N#Cc1cnc(SCC(=O)N2c3ccccc3Sc3ccccc32)nc1N [Compound 24, 4-Amino-2-(2-oxo-2-(10H-phenothiazin-10-yl)ethylthio)pyrimidine-5-carbonitrile] |  |  |  |  | 241 to 243 |  | 
16 | N#Cc1cnc(SCC(=O)N2c3ccccc3Sc3ccc(C(F)(F)F)cc32)nc1N [Compound 5, 4-Amino-2-(2-(2-trifluoromethyl-10H-phenothiazin-10-yl)-2-oxoethylthio)pyrimidine-5-carbonitrile] | CNS- | 2.78 ± 0.14 | weak short acting hypophagic activity |  | 218 to 220 | 62–74% | 62
17 | O=C(CSc1nnc(-c2ccncc2)o1)N1c2ccccc2Sc2ccc(C(F)(F)F)cc21 [Compound 29, 2-(5-(4-Pyridyl)-1,3,4-oxadiazol-2-ylthio)-1-(2-trifluoromethyl-10H-phenothiazin-10-yl)ethanone] |  |  |  |  | 156 to 158 |  | 
18 | N#Cc1cnc(SCCCN2c3ccccc3Sc3ccc(C(F)(F)F)cc32)nc1N [Compound 42, 4-Amino-2-(3-(2-trifluoromethyl-10H-phenothiazin-10-yl)propylthio)pyrimidine-5-carbonitrile] | CNS- | 2.6 ± 0.18 | no effect on the food intake | 80–99% | 164 to 166 |  | 
19 | CCOC(=O)c1cnc(SCCCN2c3ccccc3Sc3ccccc32)nc1N [Compound 49, Ethyl 4-amino-2-(3-(10H-phenothiazin-10-yl)propylthio)pyrimidine-5-carboxylate] |  |  |  |  | 146 to 148 |  | 
20 | N#Cc1cnc(SCCCN2c3ccccc3Sc3ccccc32)nc1N [Compound 45, 4-Amino-2-(3-(10H-phenothiazin-10-yl)propylthio)pyrimidine-5-carbonitrile] |  |  |  |  | 117 to 119 |  | 
